In patent US5538712A, “Cyclopentadienylcarbonyl 99MTC complexes, process for their production as well as their use in diagnostics” (Institut Fur Diagnostikforschung GmbH/an der Freien …, priority 1990, dated 1996):
Like-named read-outs stand apart in the source and are kept apart here. Blank lines part the entries; values can stand above or below the compound they belong to.

Assays:
[1] = Chemical stability, decomposition by chromatography; assay type: physicochemical; settings: after 24 hours, chromatographically
From the text: This lipophilic ^99m Tc-compound can be obtained in pure form by elution of the corresponding silica gel fraction (RF =0.36), e.g., with ethanol. The radiochemical purity is established by rechromatography of the eluate.

[2] = Organ distribution in mice of 99mTc-acetylcymantrene; assay type: in vivo
Procedure: (§1) The organ distributions in mice and rats as well as partially in rabbits were tested by the technetium-labeled cytectrene derivatives. The organ distribution of the ^99m Tc-labeled cytectrene derivatives is a function of the substituent on the cyclopentadienyl ring system.

[3] = In vivo SPECT study of cerebral blood flow in rabbits; set-up: species or system rabbits (New Zealander); settings: for contrast [brain/background]: rabbit SPECT, 8 minutes p.i., 15 minutes p.i.; for contrast [brain/background] / cerebral uptake: HM-PAO 59 MBq, cytectrene 14 MBq; for cerebral uptake: rabbit, i.v., test from 8 minutes p.i., from 15 minutes p.i., 2400 seconds
Procedure: In an in vivo study on rabbits (New Zealander, breeding by Schering AG Berlin, approximately 4 kg, male), the cerebral blood flow of commercially available HM-PAO was compared with the N-methyl-piperidin-4-ol-cytectrenecarboxylic acid ester (produced analogously to example 6).
The study was made with a SPECT camera of Apex 409 type.
After nembutal anesthesia, the animal was intravenously administered 1 ml of an isotonic, aqueous, sterile solution of ^99m Tc-HMPAO or said cytectrene derivative.
The recording technique and the results are described by the following table.

[4] = 99mTc concentration in rat brain and brain/blood concentration quotient (FIGS. 2 and 3); assay type: in vivo
Procedure: FIG. 2 graphically illustrates the results of tests on ^99m Tc concentration in the brain (% dose/% weight). In the experiments, the rats (n=4) intravenously received about 5 μCi of the Tc-99-labeled ester dissolved in 0.1 ml of EtOH/0.9% NaCl per animal. The esters, i.e., 4-pip-ester, 3-pip-ester and quin.-ester, were obtained from cytectrene-carboxylic acid and the following, respectively: 4-hydroxy-N-(methyl)-piperidine, 3-hydroxy-N-(methyl)-piperidine and 3-quinuclidinol. 15 minutes after HM-PAO administration, the brain concentration is at 1.7% dose/% weight. […] The rats (n=4) intravenously received about 5 μCi of the Tc-99-labeled ester dissolved in 0.1 ml of EtOH/0.9% NaCl per animal. The esters tested were obtained from cytectrenecarboxylic acid and 4-hydroxy-N-(methyl)-piperidine, 3-hydroxy-N-(methyl)-piperidine and 3-quinuclidinol, respectively. 15 minutes after HM-PAO administration, the brain/blood quotient is at 1.5:1.

[5] = cited from earlier work
[6] = clinical use, because of insufficient stability; cited from earlier work
[7] = Organ distribution of Tc-labeled cytectrene derivatives vs pertechnetate (FIG. 1); assay type: in vivo, mice and rats, partially rabbits; settings: pertechnetate for comparison
Procedure: as §1
FIG. 1 indicates the organ distribution of various cytectrene derivatives. For comparison, the organ distribution of pertechnetate was also recorded in this table. From the organ concentrations, it can clearly be recognized that the organ distribution of the cytectrene derivatives drastically differs from the distribution after administration of pertechnetate. With pertechnetate, the organ with the highest radioactivity concentration is blood (2.6% of dose/% body weight). On the other hand, the ^99m Tc cytectrene derivatives show a pronounced affinity for other, respectively different organs. The affinity for the individual organ is clearly dependent on the side chain of the cytectrene compound.

Compound: CC(=O)[C]1([Tc](=[C]=O)(=[C]=O)=[C]=O)C=CC=C1 [Example 1a, Tc-99m Acetyl-cytectrene]
chemical stability of the labeled compound [1]: chemically stable, since after 24 hours, no decomposition is chromatographically detectable
chemical stability of the labeled compound ([1]; listed as Example 1b): chemically stable, after 24 hours, no decomposition is chromatographically detectable
organ distribution [2]: preferred concentration in liver and suprarenal glands

cerebral uptake [3]: 7.5 % of the administered activity
concentration ratio of brain/blood, improvement factor over HM-PAO ([4]; compared with HM-PAO complexes): ~10 factor
Compound: cyclopentadienylcarboxylic acid-(N-methyl-piperidinol)-4-ester-^99m technetium-tricarbonyl complex
contrast [brain/background] [3]: 0.98
visual delimitability of the brain in SPECT tests ([3]; rabbits, 14 MBq, compared with HM-PAO complex): more clearly visual delimitability of the brain in SPECT tests
concentration in the brain ([4]; i.v., about 5 μCi): about 4 % dose/% body weight

cerebral uptake [3]: 5.9 % of the administered activity
Compound: C/C(=N\O)C(C)NCC(C)(C)CNC(C)/C(C)=N/O (centres unmarked) [HM-PAO, hexamethyl-propylenamine oxime]
contrast [brain/background] [3]: 0.98
concentration in the brain ([5]; comparable measurements for known compounds, L. Bacciottini et al. 1990): around 1.7 % dose/% body weight
99mTc concentration in the brain ([5]; rat, 15 minutes after HM-PAO administration): 1.7 % dose/% weight
time after labeling within which it has to be administered [6]: ≤ 30 min

Compound: [O]=[99Tc](=[O])(=[O])[O-] [pertechnetate, ^99m Tc-pertechnetate]
radioactivity concentration in blood (organ with the highest concentration) [7]: 2.6 % of dose/% body weight
